# Measurements taken from ChEMBL document CHEMBL4825673, “Total and Semisyntheses of Polymyxin Analogues with 2-Thr or 10-Thr Modifications to Decipher the Structure-Activity Relationship and Improve the Antibacterial Activity” (J Med Chem, 2021).
# Positions of bridges follow the written chain, without caps; N, C: chain ends. Non-standard residues stand in square brackets, D forms with d. Residues, ends and D or L forms follow the SMILES beside them. *: point of attachment. Benzoyl(4-OPh) = O=C(c1ccc(Oc2ccccc2)cc1)*; X1 = CC[C@H](C)CCCCC(=O)*; Octanoyl = CCCCCCCC(=O)*; Dab = NCC[C@H](N)C(=O)O
# Key:
# Assay type in all cases: functional
# Conditions in all cases: read-out: MIC100
# Klebsiella pneumoniae = assay: Antibacterial activity against Klebsiella pneumoniae assessed as inhibition of bacterial growth incubated for 24 hrs by broth microdilution method
# Acinetobacter baumannii = assay: Antibacterial activity against Acinetobacter baumannii assessed as inhibition of bacterial growth incubated for 24 hrs by broth microdilution method
# Escherichia coli = assay: Antibacterial activity against Escherichia coli assessed as inhibition of bacterial growth incubated for 24 hrs by broth microdilution method
# Moraxella catarrhalis = assay: Antibacterial activity against Moraxella catarrhalis assessed as inhibition of bacterial growth incubated for 24 hrs by broth microdilution method
# Pseudomonas aeruginosa [1] = assay: Antibacterial activity against Pseudomonas aeruginosa assessed as inhibition of bacterial growth incubated for 24 hrs by broth microdilution method
# Pseudomonas aeruginosa [2] = assay: Antibacterial activity against Pseudomonas aeruginosa PAO1 assessed as inhibition of bacterial growth incubated for 24 hrs by broth microdilution method
SMILES,MIC (Klebsiella pneumoniae),MIC (Acinetobacter baumannii),MIC (Escherichia coli),MIC (Moraxella catarrhalis),MIC (Pseudomonas aeruginosa [1]),MIC (Pseudomonas aeruginosa [2])
CC[C@H](C)CCCCC(=O)N[C@@H](CCN)C(=O)N[C@H](C(=O)N[C@@H](CCN)C(=O)N[C@H]1CCNC(=O)[C@H]([C@@H](C)O)NC(=O)[C@H](CCN)NC(=O)[C@H](CCN)NC(=O)[C@H](CC(C)C)NC(=O)[C@@H](Cc2ccccc2)NC(=O)[C@H](CCN)NC1=O)[C@@H](C)OC(=O)[C@@H](N)CCC(N)=O,2 µg/mL,0.06 µg/mL,0.25 µg/mL,> 32 µg/mL,0.125 µg/mL,2 µg/mL
CCCCCCCC(=O)N[C@@H](CCN)C(=O)N[C@H](C(=O)N[C@@H](CCN)C(=O)N[C@H]1CCNC(=O)[C@H](CC(C)C)NC(=O)[C@H](CCN)NC(=O)[C@H](CCN)NC(=O)[C@H](CC(C)C)NC(=O)[C@@H](Cc2ccccc2)NC(=O)[C@H](CCN)NC1=O)[C@@H](C)O (Octanoyl-[Dab]T[Dab][Dab][Dab][dF]L[Dab][Dab]L; lactam 4-C),2 µg/mL,2 µg/mL,4 µg/mL,2 µg/mL,0.25 µg/mL,4 µg/mL
CC(C)CCCCC(=O)N[C@@H](CCN)C(=O)N[C@H](C(=O)N[C@@H](CCN)C(=O)N[C@H]1CCNC(=O)[C@H]([C@@H](C)O)NC(=O)[C@H](CCN)NC(=O)[C@H](CCN)NC(=O)[C@H](CC(C)C)NC(=O)[C@@H](Cc2ccccc2)NC(=O)[C@H](CCN)NC1=O)[C@H](C)OC(=O)[C@@H](N)CCC(N)=O,2 µg/mL,0.06 µg/mL,0.5 µg/mL,> 32 µg/mL,0.25 µg/mL,2 µg/mL
CCCCCCCC(=O)N[C@@H](CCN)C(=O)N[C@H](C(=O)N[C@@H](CCN)C(=O)N[C@H]1CCNC(=O)[C@H](CCN)NC(=O)[C@H](CCN)NC(=O)[C@H](CCN)NC(=O)[C@H](CC(C)C)NC(=O)[C@@H](Cc2ccccc2)NC(=O)[C@H](CCN)NC1=O)[C@@H](C)O,> 32 µg/mL,0.25 µg/mL,8 µg/mL,8 µg/mL,8 µg/mL,64 µg/mL
CC[C@H](C)CCCCC(=O)N[C@@H](CCN)C(=O)N[C@H](C(=O)N[C@@H](CCN)C(=O)N[C@H]1CCNC(=O)[C@H]([C@@H](C)OC(=O)[C@@H]2CCCN2)NC(=O)[C@H](CCN)NC(=O)[C@H](CCN)NC(=O)[C@H](CC(C)C)NC(=O)[C@@H](Cc2ccccc2)NC(=O)[C@H](CCN)NC1=O)[C@@H](C)OC(=O)[C@@H]1CCCN1,–,–,–,–,–,2 µg/mL
CC[C@H](C)CCCCC(=O)N[C@@H](CCN)C(=O)N[C@H](C(=O)N[C@@H](CCN)C(=O)N[C@H]1CCNC(=O)[C@H]([C@@H](C)O)NC(=O)[C@H](CCN)NC(=O)[C@H](CCN)NC(=O)[C@H](CC(C)C)NC(=O)[C@@H](Cc2ccccc2)NC(=O)[C@H](CCN)NC1=O)[C@@H](C)OC(=O)[C@@H](N)[C@@H](C)CC,–,–,–,–,–,2 µg/mL
CC(C)C[C@@H]1NC(=O)[C@@H](Cc2ccccc2)NC(=O)[C@H](CCN)NC(=O)[C@@H](NC(=O)[C@H](CCN)NC(=O)[C@@H](NC(=O)[C@H](CCN)NC(=O)c2ccc(Oc3ccccc3)cc2)[C@@H](C)O)CCNC(=O)[C@H]([C@@H](C)O)NC(=O)[C@H](CCN)NC(=O)[C@H](CCN)NC1=O ({Benzoyl(4-OPh)}-[Dab]T[Dab][Dab][Dab][dF]L[Dab][Dab]T; lactam 4-C),–,–,–,–,–,4 µg/mL
CC[C@H](C)CCCCC(=O)N[C@@H](CCN)C(=O)N[C@H](C(=O)N[C@@H](CCN)C(=O)N[C@H]1CCNC(=O)[C@H]([C@@H](C)O)NC(=O)[C@H](CCN)NC(=O)[C@H](CCN)NC(=O)[C@H](CC(C)C)NC(=O)[C@@H](Cc2ccccc2)NC(=O)[C@H](CCN)NC1=O)[C@@H](C)O (X1-[Dab]T[Dab][Dab][Dab][dF]L[Dab][Dab]T; lactam 4-C),–,–,–,–,–,2 µg/mL
CC[C@H](C)CCCCC(=O)N[C@@H](CCN)C(=O)N[C@H](C(=O)N[C@@H](CCN)C(=O)N[C@H]1CCNC(=O)[C@H]([C@@H](C)O)NC(=O)[C@H](CCN)NC(=O)[C@H](CCN)NC(=O)[C@H](CC(C)C)NC(=O)[C@@H](Cc2ccccc2)NC(=O)[C@H](CCN)NC1=O)[C@@H](C)OC(=O)[C@@H](N)CC(N)=O,–,–,–,–,–,2 µg/mL
CC[C@H](C)CCCCC(=O)N[C@@H](CCN)C(=O)N[C@H](C(=O)N[C@@H](CCN)C(=O)N[C@H]1CCNC(=O)[C@H]([C@@H](C)OC(=O)[C@H](C)N)NC(=O)[C@H](CCN)NC(=O)[C@H](CCN)NC(=O)[C@H](CC(C)C)NC(=O)[C@@H](Cc2ccccc2)NC(=O)[C@H](CCN)NC1=O)[C@@H](C)OC(=O)[C@H](C)N,–,–,–,–,–,2 µg/mL
CC(C)CCCCC(=O)N[C@@H](CCN)C(=O)N[C@H](C(=O)N[C@@H](CCN)C(=O)N[C@H]1CCNC(=O)[C@H]([C@@H](C)OC(=O)[C@H](C)N)NC(=O)[C@H](CCN)NC(=O)[C@H](CCN)NC(=O)[C@H](CC(C)C)NC(=O)[C@@H](Cc2ccccc2)NC(=O)[C@H](CCN)NC1=O)[C@@H](C)OC(=O)[C@H](C)N,–,–,–,–,–,2 µg/mL

# More lines, now with the values ahead:
MIC (Klebsiella pneumoniae),MIC (Acinetobacter baumannii),MIC (Escherichia coli),MIC (Moraxella catarrhalis),MIC (Pseudomonas aeruginosa [1]),MIC (Pseudomonas aeruginosa [2]),SMILES
2 µg/mL,0.125 µg/mL,0.25 µg/mL,> 16 µg/mL,0.125 µg/mL,2 µg/mL,CSCC[C@H](N)C(=O)O[C@H](C)[C@H](NC(=O)[C@H](CCN)NC(=O)CCCCC(C)C)C(=O)N[C@@H](CCN)C(=O)N[C@H]1CCNC(=O)[C@H]([C@@H](C)O)NC(=O)[C@H](CCN)NC(=O)[C@H](CCN)NC(=O)[C@H](CC(C)C)NC(=O)[C@@H](Cc2ccccc2)NC(=O)[C@H](CCN)NC1=O
4 µg/mL,1 µg/mL,0.5 µg/mL,> 32 µg/mL,0.5 µg/mL,2 µg/mL,CC(C)CCCCC(=O)N[C@@H](CCN)C(=O)N[C@H](C(=O)N[C@@H](CCN)C(=O)N[C@H]1CCNC(=O)[C@H]([C@@H](C)O)NC(=O)[C@H](CCN)NC(=O)[C@H](CCN)NC(=O)[C@H](CC(C)C)NC(=O)[C@@H](Cc2ccccc2)NC(=O)[C@H](CCN)NC1=O)[C@@H](C)OC(=O)[C@@H](N)C(C)C
> 32 µg/mL,16 µg/mL,4 µg/mL,4 µg/mL,0.5 µg/mL,4 µg/mL,CC(C)CCCCC(=O)N[C@@H](CCN)C(=O)N[C@@H](Cc1ccccc1)C(=O)N[C@@H](CCN)C(=O)N[C@H]1CCNC(=O)[C@H]([C@@H](C)O)NC(=O)[C@H](CCN)NC(=O)[C@H](CCN)NC(=O)[C@H](CC(C)C)NC(=O)[C@@H](Cc2ccccc2)NC(=O)[C@H](CCN)NC1=O
1 µg/mL,0.125 µg/mL,0.25 µg/mL,32 µg/mL,0.25 µg/mL,1 µg/mL,CC(C)CCCCC(=O)N[C@@H](CCN)C(=O)N[C@H](C(=O)N[C@@H](CCN)C(=O)N[C@H]1CCNC(=O)[C@H]([C@@H](C)O)NC(=O)[C@H](CCN)NC(=O)[C@H](CCN)NC(=O)[C@H](CC(C)C)NC(=O)[C@@H](Cc2ccccc2)NC(=O)[C@H](CCN)NC1=O)[C@@H](C)OC(=O)[C@@H](N)CO
2 µg/mL,0.125 µg/mL,0.25 µg/mL,> 32 µg/mL,0.25 µg/mL,1 µg/mL,CC(C)CCCCC(=O)N[C@@H](CCN)C(=O)N[C@H](C(=O)N[C@@H](CCN)C(=O)N[C@H]1CCNC(=O)[C@H]([C@@H](C)O)NC(=O)[C@H](CCN)NC(=O)[C@H](CCN)NC(=O)[C@H](CC(C)C)NC(=O)[C@@H](Cc2ccccc2)NC(=O)[C@H](CCN)NC1=O)[C@@H](C)OC(=O)[C@H](C)N
0.5 µg/mL,0.25 µg/mL,0.5 µg/mL,> 32 µg/mL,0.25 µg/mL,4 µg/mL,CC(C)CCCCC(=O)N[C@@H](CCN)C(=O)N[C@H](C(=O)N[C@@H](CCN)C(=O)N[C@H]1CCNC(=O)[C@H]([C@@H](C)O)NC(=O)[C@H](CCN)NC(=O)[C@H](CCN)NC(=O)[C@H](CC(C)C)NC(=O)[C@@H](Cc2ccccc2)NC(=O)[C@H](CCN)NC1=O)[C@@H](C)OC(=O)[C@@H](N)Cc1ccccc1
> 64 µg/mL,> 64 µg/mL,16 µg/mL,8 µg/mL,2 µg/mL,32 µg/mL,"CCCCCCCC(=O)N[C@@H](CCN)C(=O)NC(Cc1ccc(O)cc1)C(=O)N[C@@H](CCN)C(=O)N[C@H]1CCNC(=O)[C@H]([C@@H](C)O)NC(=O)[C@H](CCN)NC(=O)[C@H](CCN)NC(=O)[C@H](CC(C)C)NC(=O)[C@@H](Cc2ccccc2)NC(=O)[C@H](CCN)NC1=O (single isomer, unassigned)"
–,–,–,–,–,2 µg/mL,CCCCCCCC(=O)N[C@@H](CCN)C(=O)N[C@@H](CO)C(=O)N[C@@H](CCN)C(=O)N[C@H]1CCNC(=O)[C@H]([C@@H](C)O)NC(=O)[C@H](CCN)NC(=O)[C@H](CCN)NC(=O)[C@H](CC(C)C)NC(=O)[C@@H](Cc2ccccc2)NC(=O)[C@H](CCN)NC1=O
–,–,–,–,–,2 µg/mL,CC[C@H](C)CCCCC(=O)N[C@@H](CCN)C(=O)N[C@H](C(=O)N[C@@H](CCN)C(=O)N[C@H]1CCNC(=O)[C@H]([C@@H](C)O)NC(=O)[C@H](CCN)NC(=O)[C@H](CCN)NC(=O)[C@H](CC(C)C)NC(=O)[C@@H](Cc2ccccc2)NC(=O)[C@H](CCN)NC1=O)[C@@H](C)OC(=O)[C@@H](N)Cc1c[nH]c2ccccc12
–,–,–,–,–,2 µg/mL,CC(C)CCCCC(=O)N[C@@H](CCN)C(=O)N[C@H](C(=O)N[C@@H](CCN)C(=O)N[C@H]1CCNC(=O)[C@H]([C@@H](C)O)NC(=O)[C@H](CCN)NC(=O)[C@H](CCN)NC(=O)[C@H](CC(C)C)NC(=O)[C@@H](Cc2ccccc2)NC(=O)[C@H](CCN)NC1=O)[C@@H](C)OC(=O)[C@@H](N)CC(=O)O
–,–,–,–,–,128 µg/mL,CC(C)CCCCC(=O)N[C@@H](CCN)C(=O)N[C@@H](CCN)C(=O)N[C@@H](CCN)C(=O)N[C@H]1CCNC(=O)[C@H]([C@@H](C)O)NC(=O)[C@H](CCN)NC(=O)[C@H](CCN)NC(=O)[C@H](CC(C)C)NC(=O)[C@@H](Cc2ccccc2)NC(=O)[C@H](CCN)NC1=O
–,–,–,–,–,2 µg/mL,CC(C)CCCCC(=O)N[C@@H](CCN)C(=O)N[C@H](C(=O)N[C@@H](CCN)C(=O)N[C@H]1CCNC(=O)[C@H]([C@@H](C)O)NC(=O)[C@H](CCN)NC(=O)[C@H](CCN)NC(=O)[C@H](CC(C)C)NC(=O)[C@@H](Cc2ccccc2)NC(=O)[C@H](CCN)NC1=O)[C@H](C)OC(=O)[C@@H](N)CCC(=O)O
